Where “and” joins values, the source holds several entries; their conditions need not be identical. Identical values can stand only once.
Experiment: molar heat capacity at constant pressure
Conditions: 101.33 kPa, Crystal, Small sample (50 mg) DSC

[Ca+2].[O]=[Mo](=[O])([O-])[O-] [calcium molybdate(VI)]
Conditions | molar heat capacity at constant pressure
495.4 K | 135.5 J/K/mol
495.8 K | 135.8 J/K/mol
496.4 K | 135.6 J/K/mol
496.8 K | 135.8 J/K/mol
497.4 K | 135.6 J/K/mol
497.8 K | 135.9 J/K/mol
498.4 K | 135.7 J/K/mol
498.8 K | 136 J/K/mol
499.4 K | 135.8 J/K/mol
499.8 K | 136 J/K/mol
500 K | 136 J/K/mol
500.4 K | 135.9 J/K/mol
500.8 K | 136.1 J/K/mol
501.4 K | 136 J/K/mol
501.8 K | 136.1 J/K/mol
502.4 K | 136.1 J/K/mol
502.8 K | 136.1 J/K/mol
503.4 K | 136.2 J/K/mol
503.8 K | 136.2 J/K/mol
504.4 K | 136.2 J/K/mol
504.8 K | 136.2 J/K/mol
505.4 K | 136.3 J/K/mol
505.8 K | 136.3 J/K/mol
506.4 K | 136.3 J/K/mol
506.8 K | 136.4 J/K/mol
507.4 K | 136.4 J/K/mol
507.8 K | 136.5 J/K/mol
508.4 K | 136.5 J/K/mol
508.8 K | 136.5 J/K/mol
509.4 K | 136.6 J/K/mol
509.8 K | 136.5 J/K/mol
510 K | 136.6 J/K/mol
510.4 K | 136.6 J/K/mol
510.8 K | 136.6 J/K/mol
511.4 K | 136.7 J/K/mol
511.8 K | 136.7 J/K/mol
512.4 K | 136.8 J/K/mol
512.8 K | 136.8 J/K/mol
513.4 K | 136.9 J/K/mol
513.8 K | 136.9 J/K/mol
514.4 K | 137 J/K/mol
514.8 K | 136.9 J/K/mol
515.4 K | 137.1 J/K/mol
515.8 K | 137 J/K/mol
516.4 K | 137.1 J/K/mol
516.8 K | 137 J/K/mol
517.4 K | 137.2 J/K/mol
517.8 K | 137.1 J/K/mol
518.4 K | 137.3 J/K/mol
518.8 K | 137.2 J/K/mol
519.4 K | 137.3 J/K/mol
519.8 K | 137.3 J/K/mol
520 K | 137.3 J/K/mol
520.4 K | 137.4 J/K/mol
520.8 K | 137.3 J/K/mol
521.4 K | 137.5 J/K/mol
521.8 K | 137.4 J/K/mol
522.4 K | 137.6 J/K/mol
522.8 K | 137.5 J/K/mol
523.4 K | 137.7 J/K/mol
523.8 K | 137.6 J/K/mol
524.4 K | 137.7 J/K/mol
524.8 K | 137.6 J/K/mol
525.4 K | 137.8 J/K/mol
525.8 K | 137.7 J/K/mol
526.4 K | 137.8 J/K/mol
526.8 K | 137.7 J/K/mol
527.4 K | 137.9 J/K/mol
527.8 K | 137.7 J/K/mol
528.4 K | 137.9 J/K/mol
528.9 K | 137.8 J/K/mol
529.4 K | 138 J/K/mol
529.9 K | 137.8 J/K/mol
530 K | 137.9 J/K/mol
530.4 K | 138.1 J/K/mol
530.9 K | 137.8 J/K/mol
531.4 K | 138.1 J/K/mol
531.9 K | 137.8 J/K/mol
532.4 K | 138.2 J/K/mol
532.9 K | 137.9 J/K/mol
533.4 K | 138.2 J/K/mol
533.9 K | 138 J/K/mol
534.4 K | 138.3 J/K/mol
534.9 K | 138.1 J/K/mol
535.4 K | 138.3 J/K/mol
535.9 K | 138.2 J/K/mol
536.4 K | 138.4 J/K/mol
536.9 K | 138.3 J/K/mol
537.4 K | 138.5 J/K/mol
537.9 K | 138.4 J/K/mol
538.4 K | 138.5 J/K/mol
538.9 K | 138.5 J/K/mol
539.4 K | 138.6 J/K/mol
539.9 K | 138.7 J/K/mol
540 K | 138.4 J/K/mol
540.4 K | 138.7 J/K/mol
540.9 K | 138.8 J/K/mol
541.4 K | 138.7 J/K/mol
541.9 K | 138.8 J/K/mol
542.4 K | 138.8 J/K/mol
542.9 K | 138.8 J/K/mol
543.4 K | 138.8 J/K/mol
543.9 K | 138.9 J/K/mol
544.4 K | 138.9 J/K/mol
544.9 K | 138.9 J/K/mol
545.4 K | 138.9 J/K/mol
545.9 K | 138.9 J/K/mol
546.4 K | 139 J/K/mol
546.9 K | 138.9 J/K/mol
547.4 K | 139 J/K/mol
547.9 K | 139 J/K/mol
548.4 K | 139 J/K/mol
548.9 K | 139.1 J/K/mol
549.4 K | 139 J/K/mol
549.9 K | 139.2 J/K/mol
550 K | 139 J/K/mol
550.4 K | 139.1 J/K/mol
550.9 K | 139.3 J/K/mol
551.4 K | 139.1 J/K/mol
551.9 K | 139.5 J/K/mol
552.4 K | 139.2 J/K/mol
552.9 K | 139.6 J/K/mol
553.4 K | 139.2 J/K/mol
553.9 K | 139.7 J/K/mol
554.4 K | 139.3 J/K/mol
554.9 K | 139.8 J/K/mol
555.4 K | 139.3 J/K/mol
555.9 K | 139.8 J/K/mol
556.4 K | 139.4 J/K/mol
556.9 K | 139.8 J/K/mol
557.4 K | 139.5 J/K/mol
557.9 K | 139.8 J/K/mol
558.4 K | 139.5 J/K/mol
558.9 K | 139.8 J/K/mol
559.4 K | 139.6 J/K/mol
559.9 K | 139.9 J/K/mol
560 K | 139.5 J/K/mol
560.4 K | 139.7 J/K/mol
560.9 K | 139.9 J/K/mol
561.4 K | 139.7 J/K/mol
561.9 K | 140 J/K/mol
562.4 K | 139.8 J/K/mol
562.9 K | 140.2 J/K/mol
563.4 K | 139.8 J/K/mol
563.9 K | 140.4 J/K/mol
564.4 K | 139.9 J/K/mol
564.9 K | 140.6 J/K/mol
565.4 K | 139.9 J/K/mol
565.9 K | 140.7 J/K/mol
566.4 K | 139.9 J/K/mol
566.9 K | 140.8 J/K/mol
567.4 K | 139.9 J/K/mol
568 K | 140.8 J/K/mol
568.4 K | 140 J/K/mol
569 K | 140.9 J/K/mol
569.4 K | 140.1 J/K/mol
570 K | 140 J/K/mol and 141 J/K/mol
570.4 K | 140.2 J/K/mol
571 K | 141 J/K/mol
571.4 K | 140.2 J/K/mol
572 K | 141 J/K/mol
572.4 K | 140.3 J/K/mol
573 K | 141 J/K/mol
573.4 K | 140.3 J/K/mol
574 K | 141.1 J/K/mol
574.4 K | 140.4 J/K/mol
575 K | 141.2 J/K/mol
575.4 K | 140.4 J/K/mol
576 K | 141.2 J/K/mol
576.4 K | 140.5 J/K/mol
577 K | 141.3 J/K/mol
577.4 K | 140.6 J/K/mol
578 K | 141.3 J/K/mol
578.4 K | 140.7 J/K/mol
579 K | 141.2 J/K/mol
579.4 K | 140.7 J/K/mol
580 K | 140.5 J/K/mol and 141.2 J/K/mol
580.4 K | 140.8 J/K/mol
581 K | 141.2 J/K/mol
581.4 K | 140.8 J/K/mol
582 K | 141.3 J/K/mol
582.4 K | 140.8 J/K/mol
583 K | 141.3 J/K/mol
583.4 K | 140.9 J/K/mol
584 K | 141.4 J/K/mol
584.4 K | 140.9 J/K/mol
585 K | 141.6 J/K/mol
585.4 K | 141 J/K/mol
586 K | 141.7 J/K/mol
586.4 K | 141 J/K/mol
587 K | 141.8 J/K/mol
587.4 K | 141 J/K/mol
588 K | 141.9 J/K/mol
588.4 K | 141 J/K/mol
589 K | 142 J/K/mol
589.4 K | 141 J/K/mol
590 K | 141 J/K/mol and 142.1 J/K/mol
590.4 K | 141.1 J/K/mol
591 K | 142.1 J/K/mol
591.4 K | 141.2 J/K/mol
592 K | 142 J/K/mol
592.4 K | 141.2 J/K/mol
593 K | 142 J/K/mol
593.4 K | 141.2 J/K/mol
594 K | 142 J/K/mol
594.4 K | 141.2 J/K/mol
595 K | 142 J/K/mol
595.4 K | 141.2 J/K/mol
596 K | 142.1 J/K/mol

— the NIST ThermoML archive (doi:10.1016/j.tca.2018.01.023)
